Assay results taken from patent US8580965B2, “Substituted sulfonamide compounds” (Gruenenthal GmbH, priority 2006, dated 2013).

Experiments:
[1] = target: T1, human B1R receptor (bradykinin 1 receptor) (Homo sapiens, UniProt P46663); assay: FLIPR Ca2+ assay (Fluo-4) on CHO K1 cells stably transfected with the human B1R gene; % activation and % inhibition at 10 μM; assay type: cell-based; settings: CHO-K1, test substance 10 μM; CHO K1 hB1R cells; Ca2+ inflow after 0.5 nM Lys-Des-Arg9-bradykinin; read-out: B1R antagonism, human [10 μM] % inhibition
T1 construct: host or cells: CHO K1 cells (hB1R cells)
T1 sequence (P46663 1-353): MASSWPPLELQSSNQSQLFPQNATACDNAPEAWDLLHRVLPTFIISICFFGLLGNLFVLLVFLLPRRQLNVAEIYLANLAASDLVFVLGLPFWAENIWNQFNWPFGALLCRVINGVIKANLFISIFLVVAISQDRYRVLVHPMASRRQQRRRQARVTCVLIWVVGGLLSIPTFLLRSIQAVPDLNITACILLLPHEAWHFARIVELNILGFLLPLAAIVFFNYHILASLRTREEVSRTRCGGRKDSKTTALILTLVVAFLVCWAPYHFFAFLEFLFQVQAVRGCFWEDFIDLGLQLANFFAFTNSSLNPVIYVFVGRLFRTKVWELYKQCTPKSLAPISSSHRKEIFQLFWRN
How it was run: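 Fluo-4 Ca2+ flux on FLIPR in stable hB1R or rB1R CHO K1 lines, two additions. Agonism: 10 µM compound versus 0.5 nM Lys-Des-Arg9-BK (human) or 100 nM Des-Arg9-BK (rat); antagonism: same agonists applied 10 min later, suppression expressed against maximum achievable inhibition.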

[2] = target: T2, B1R receptor of the rat (bradykinin 1 receptor) (Rattus norvegicus, UniProt P97583); assay: FLIPR Ca2+ assay (Fluo-4) on CHO K1 cells stably transfected with the B1R gene of the rat; % activation and % inhibition at 10 μM; assay type: cell-based; settings: CHO-K1, test substance 10 μM; CHO K1 rB1R cells; Ca2+ inflow after 100 nM Des-Arg9-bradykinin; read-out: B1R antagonism, rat [10 μM] % inhibition
T2 construct: host or cells: CHO K1 cells (rB1R cells)
T2 sequence (P97583 1-337): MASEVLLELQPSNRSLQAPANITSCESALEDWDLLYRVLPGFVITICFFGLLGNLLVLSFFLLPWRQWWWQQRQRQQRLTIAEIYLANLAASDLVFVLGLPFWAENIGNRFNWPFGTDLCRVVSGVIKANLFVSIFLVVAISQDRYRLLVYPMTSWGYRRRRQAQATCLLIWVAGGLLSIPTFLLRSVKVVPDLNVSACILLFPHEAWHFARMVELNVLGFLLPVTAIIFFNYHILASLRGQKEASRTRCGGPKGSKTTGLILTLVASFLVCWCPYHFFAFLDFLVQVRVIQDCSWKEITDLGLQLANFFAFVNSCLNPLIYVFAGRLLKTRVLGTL
Protocol: The agonistic or antagonistic action of substances can be quantified on the bradykinin receptor 1 (B1R) of the species human and rat with ectopically expressing cell lines (CHO K1 cells) and with the aid of a Ca^2+-sensitive dye (Fluo-4) using a fluorescent imaging plate reader (FLIPR). The indication in % activation is based on the Ca^2+ signal after addition of Lys-Des-Arg^9-bradykinin (0.5 nM) or Des-Arg^9-bradykinin (100 nM). Antagonists result in a suppression of the Ca^2+ influx following administration of the agonist. The % inhibition in comparison with the maximum achievable inhibition is indicated.
Functional Investigation on the Bradykinin 1 Receptor (B1R)
The agonistic or antagonistic action of substances can be determined on the bradykinin 1 receptor (B1R) of the human and rat species with the following assay. According to this assay, the Ca^2+ inflow through the channel is quantified with the aid of a Ca^2+-sensitive dyes (Fluo-4 type, Molecular Probes Europe BV, Leiden, The Netherlands) in a fluorescent imaging plate reader (FLIPR, Molecular Devices, Sunnyvale, USA).
Chinese Hamster Ovary cells (CHO K1 cells) which are stably transfected with the human B1R gene (hB1R cells, Euroscreen s.a., Gosselies, Belgium) or the B1R gene of the rat (rB1R cells, Axxam, Milan, Italy) are used. For functional investigations, these cells are plated-out on black 96-well plates with a clear base (BD Biosciences, Heidelberg, Germany) in a density of 20,000-25,000 cells/well. Overnight, the cells are incubated at 37° C. and 5% CO2 in culture medium (hB1R cells: Nutrient Mixture Ham's F12, Gibco Invitrogen GmbH, Karlsruhe, Germany; rB1R cells: D-MEM/F12, Gibco Invitrogen, Karlsruhe, Germany) with 10 vol. % FBS (foetal bovine serum, Gibco Invitrogen GmbH, Karlsruhe, Germany). On the following day, the cells are loaded with 2.13 μM Fluo-4 (Molecular Probes Europe BV, Leiden, The Netherlands) in HBSS buffer (Hank's buffered saline solution, Gibco Invitrogen GmbH, Karlsruhe, Germany) […] (Sigma-Aldrich, Taufkirchen, Germany) and 10 mM HEPES (Sigma-Aldrich, Taufkirchen, Germany) for 60 min at 37° C. The plates are subsequently washed 2× with HBSS buffer, and HBSS buffer which additionally contains 0.1% BSA (bovine serum albumin; Sigma-Aldrich, Taufkirchen, Germany), 5.6 mM glucose and 0.05% gelatine (Merck KGaA, Darmstadt, Germany) is added. After a further incubation of 20 minutes at room temperature, the plates are inserted into the FLIPR for Ca^2+ measurement. The Ca^2+-dependent fluorescence is measured here before and after addition of substances (λex=488 nm, λem=540 nm). The quantification is effected by measurement of the highest fluorescence intensity (FC, fluorescence counts) over time.
The FLIPR protocol comprises 2 additions of substance. Test substances (10 μM) are first pipetted on to the cells and the Ca^2+ inflow is compared with the control (hB1R: Lys-Des-Arg^9-bradykinin 0.5 nM; rB1R: Des-Arg^9-bradykinin 100 nM). The value in % activation based on the Ca^2+ signal after addition of Lys-Des-Arg^9-bradykinin (0.5 nM) or Des-Arg^9-bradykinin (100 nM) is obtained therefrom. After incubation for 10 minutes, 0.5 nM Lys-Des-Arg^9-bradykinin (hB1R) or 100 nM Des-Arg^9-bradykinin (rB1R) are applied and the inflow of Ca^2+ is likewise determined. Antagonists lead to a suppression of the Ca^2+ inflow. % inhibition compared with the maximum inhibition which can be achieved is calculated. The compounds show a good activity on the human and on the rat receptor. The following data were determined by way of example: […]

inhibition at 10 µM [1] [%] | inhibition at 10 µM [2] [%] | Compound
22.2 | 17.1 | CN(CCOCC(=O)N1CCC(O)(c2ccccn2)CC1)S(=O)(=O)c1ccc(OC(F)(F)F)cc1 [Example 20, N-{2-[2-(4′-hydroxy-3′,4′,5′,6′-tetrahydro-2′H-[2,4′]bipyridinyl-1′-yl)-2-oxo-ethoxy]-ethyl}-N-methyl-4-trifluoromethoxy-phenylsulfonamide]
20.5 | 71.1 | COc1cc(C)c(S(=O)(=O)N2CCC(OCC(=O)N3CCC(O)(c4ccccn4)CC3)C2)c(C)c1 (centres unmarked) [Example 21, 1-(4′-hydroxy-3′,4′,5′,6′-tetrahydro-2′H-[2,4′]bipyridinyl-1′-yl)-2-[1-(4-methoxy-2,6-dimethyl-phenylsulfonyl)-pyrrolidin-3-yloxy]-ethanone]
15.7 | 56.9 | COc1ccc(S(=O)(=O)N2Cc3ccccc3CC2COCC(=O)N2CCC(O)(Cc3ccccc3)CC2)cc1 (centres unmarked) [Example 23, 1-(4-benzyl-4-hydroxy-piperidin-1-yl)-2-[2-(4-methoxy-phenylsulfonyl)-1,2,3,4-tetrahydro-isoquinolin-3-ylmethoxy]-ethanone]
12.1 | 6.88 | Cc1ccc(S(=O)(=O)N2CCC(OCC(=O)N3CCC(O)(Cc4ccccc4)CC3)C2)cc1 (centres unmarked) [Example 24, 1-(4-benzyl-4-hydroxy-piperidin-1-yl)-2-[1-(toluene-4-sulfonyl)-pyrrolidin-3-yloxy]-ethanone]
9.64 | 5.09 | COc1ccc(S(=O)(=O)N2CCCC2COCC(=O)N2CCC(O)(c3ccncc3)CC2)cc1 (centres unmarked) [Example 26, 1-(4-hydroxy-3,4,5,6-tetrahydro-2H-[4,4′]bipyridinyl-1-yl)-2-[1-(4-methoxy-phenylsulfonyl)-pyrrolidin-2-ylmethoxy]-ethanone]
6.86 | 17.4 | Cc1cc(C)c(S(=O)(=O)N2CCC(OCC(=O)N3CCC(O)(c4ccccn4)CC3)C2)c(C)c1 (centres unmarked) [Example 30, 1-(4′-hydroxy-3′,4′,5′,6′-tetrahydro-2′H-[2,4′]bipyridinyl-1′-yl)-2-[1-(2,4,6-trimethyl-phenylsulfonyl)-pyrrolidin-3-yloxy]-ethanone]
6.18 | 19.4 | CN(c1ccccc1OCC(=O)N1CCC(O)(Cc2ccccc2)CC1)S(=O)(=O)c1ccc(Cl)c(Cl)c1 [Example 33, N-{2-[2-(4-benzyl-4-hydroxy-piperidin-1-yl)-2-oxo-ethoxy]-phenyl}-3,4-dichloro-N-methyl-phenylsulfonamide]
5.93 | 40.3 | O=C(COC1CCN(S(=O)(=O)c2ccccc2)C1)N1CCC(O)(c2ccccn2)CC1 (centres unmarked) [Example 34, 2-(1-phenylsulfonyl-pyrrolidin-3-yloxy)-1-(4′-hydroxy-3′,4′,5′,6′-tetrahydro-2′H-[2,4′]bipyridinyl-1′-yl)-ethanone]
1.84 | 61.3 | COc1ccc(S(=O)(=O)N2CCCC2COCC(=O)N2CCC(O)(c3ccccn3)CC2)cc1 (centres unmarked) [Example 40, 1-(4′-hydroxy-3′,4′,5′,6′-tetrahydro-2′H-[2,4′]bipyridinyl-1′-yl)-2-[1-(4-methoxy-phenylsulfonyl)-pyrrolidin-2-ylmethoxy]-ethanone]
1.29 | -6.31 | COc1ccc(S(=O)(=O)N(C)CCOCC(=O)N2CCC(O)(c3ccccn3)CC2)cc1OC [Example 41, N-{2-[2-(4′-hydroxy-3′,4′,5′,6′-tetrahydro-2′H-[2,4′]bipyridinyl-1′-yl)-2-oxo-ethoxy]-ethyl}-3,4-dimethoxy-N-methyl-phenylsulfonamide]
0.67 | -38.1 | COc1ccc(S(=O)(=O)N(C)CCOCC(=O)N2CCC(O)(c3ccccn3)CC2)cc1 [Example 42, N-{2-[2-(4′-hydroxy-3′,4′,5′,6′-tetrahydro-2′H-[2,4′]bipyridinyl-1′-yl)-2-oxo-ethoxy]-ethyl}-4-methoxy-N-methyl-phenylsulfonamide]
-1.29 | 33.9 | CN(C1CCCCC1OCC(=O)N1CCC(O)(Cc2ccccc2)CC1)S(=O)(=O)c1ccc(Cl)c(Cl)c1 (centres unmarked) [Example 43, N-{2-[2-(4-benzyl-4-hydroxy-piperidin-1-yl)-2-oxo-ethoxy]-cyclohexyl}-3,4-dichloro-N-methyl-phenylsulfonamide]
-2.3 | 76.6 | COc1ccc(S(=O)(=O)N2CCCCC2CCOCC(=O)N2CCC(O)(c3ccccn3)CC2)cc1 (centres unmarked) [Example 44, 1-(4′-hydroxy-3′,4′,5′,6′-tetrahydro-2′H-[2,4′]bipyridinyl-1′-yl)-2-{2-[1-(4-methoxy-phenylsulfonyl)-piperidin-2-yl]-ethoxy}-ethanone]
-5.73 | 7.14 | O=C(COCCN1CCN(S(=O)(=O)c2ccccc2)CC1)N1CCC(O)(c2ccncc2)CC1 [Example 49, 2-[2-(4-phenylsulfonyl-piperazin-1-yl)-ethoxy]-1-(4-hydroxy-3,4,5,6-tetrahydro-2H-[4,4′]bipyridinyl-1-yl)-ethanone]
-9.09 | 47.5 | COc1ccc(S(=O)(=O)N2Cc3ccccc3CC2COCC(=O)N2CCC(O)(c3ccccn3)CC2)cc1 (centres unmarked) [Example 50, 1-(4′-hydroxy-3′,4′,5′,6′-tetrahydro-2′H-[2,4′]bipyridinyl-1′-yl)-2-[2-(4-methoxy-phenylsulfonyl)-1,2,3,4-tetrahydro-isoquinolin-3-ylmethoxy]-ethanone]
-9.71 | 10.8 | O=C(COC1CCCN(S(=O)(=O)c2ccccc2)C1)N1CCC(O)(c2ccccn2)CC1 (centres unmarked) [Example 51, 2-(1-phenylsulfonyl-piperidin-3-yloxy)-1-(4′-hydroxy-3′,4′,5′,6′-tetrahydro-2′H-[2,4′]bipyridinyl-1′-yl)-ethanone]
